According to ChEMBL document CHEMBL1201862, “PubChem BioAssay data set” (2004):
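Compound exposure: 48 hours, 5 concentrations, 96-well plates. GI50 = concentration required for 50% inhibition of growth.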 The source made the active and inactive calls. No stated cut-off is given here; in the data, active = GI50 up to about 1.1 µM and inactive = higher.

Columns and labels:
Experiment in all cases: NCI tumour cell line growth inhibition, 48 h
A549 = tested on: A549
CCRF-CEM = tested on: CCRF-CEM
COLO 205 = tested on: COLO 205
HCT-116 = tested on: HCT-116
HOP-62 = tested on: HOP-62
KM12 = tested on: KM12
MOLT-4 = tested on: MOLT-4
Malme-3M = tested on: Malme-3M
NCI-H522 = tested on: NCI-H522
OVCAR-3 = tested on: OVCAR-3
SK-OV-3 = tested on: SK-OV-3
SNB-19 = tested on: SNB-19
U-251 = tested on: U-251
UACC-62 = tested on: UACC-62
XF498 = tested on: XF498
DU-145 = tested on: DU-145
MDA-MB-231 = tested on: MDA-MB-231
NCI-H226 = tested on: NCI-H226
NCI/ADR-RES = tested on: NCI/ADR-RES
SF-295 = tested on: SF-295

For `Cc1ccc(/C=C2\CCCC(C(NO)c3ccc(C)cc3)C2=NO)cc1` (stereo not given), the GI50 (A549) was 36.1 µM (inactive), the GI50 (CCRF-CEM) was 21 µM (inactive) and the GI50 (COLO 205) was 19.1 µM (inactive). For the same compound, the GI50 (HCT-116) was 45.6 µM (inactive), the GI50 (HOP-62) was 59.8 µM (inactive) and the GI50 (KM12) was 21.2 µM (inactive). The GI50 (MOLT-4) was 19.1 µM (inactive), the GI50 (Malme-3M) was 52.2 µM (inactive) and the GI50 (NCI-H522) was 28.5 µM (inactive). The GI50 (OVCAR-3) was 16.7 µM (inactive), the GI50 (SK-OV-3) was > 100 µM (inactive) and the GI50 (SNB-19) was 83.6 µM (inactive). For the same compound, the GI50 (U-251) was 55.2 µM (inactive), the GI50 (UACC-62) was 89.5 µM (inactive) and the GI50 (XF498) was 43.7 µM (inactive).
`CC12CC(Br)(Br)C(=O)C3C1CCCC32` was tested, and the GI50 (A549) was 14.6 µM (inactive), the GI50 (CCRF-CEM) was 1.36 µM (inactive) and the GI50 (COLO 205) was 2.38 µM (inactive). The GI50 (DU-145) was 12.4 µM (inactive), the GI50 (HCT-116) was 1.93 µM (inactive) and the GI50 (HOP-62) was 17.5 µM (inactive). The GI50 (KM12) was 13 µM (inactive), the GI50 (MDA-MB-231) was 3.24 µM (inactive) and the GI50 (MOLT-4) was 1.67 µM (inactive). For the same compound, the GI50 (Malme-3M) was 4.06 µM (inactive), the GI50 (NCI-H226) was 11.3 µM (inactive) and the GI50 (NCI-H522) was 3.08 µM (inactive). The GI50 (NCI/ADR-RES) was 2.51 µM (inactive), the GI50 (OVCAR-3) was 3.15 µM (inactive) and the GI50 (SF-295) was 15.9 µM (inactive). For the same compound, the GI50 (SK-OV-3) was 15.3 µM (inactive), the GI50 (SNB-19) was 14.2 µM (inactive) and the GI50 (U-251) was 11.5 µM (inactive). The GI50 (UACC-62) was 7.13 µM (inactive) and the GI50 (XF498) was 8.73 µM (inactive).
In the case of `CCc1ccccc1NC(=O)C1=C(C)NC(C)=C(C(=O)Nc2c(CC)cccc2CC)C1c1ccc2c(c1)OCO2` (stereo not given), the GI50 (A549) is reported as 17.6 µM (inactive), the GI50 (CCRF-CEM) is reported as 19.1 µM (inactive) and the GI50 (COLO 205) is reported as 19.5 µM (inactive). For the same compound, the GI50 (HCT-116) was 16.8 µM (inactive), the GI50 (HOP-62) was 19.7 µM (inactive) and the GI50 (KM12) was 16.1 µM (inactive). The GI50 (MOLT-4) was 19.1 µM (inactive), the GI50 (Malme-3M) was 16.5 µM (inactive) and the GI50 (NCI-H226) was 19.1 µM (inactive). For the same compound, the GI50 (NCI-H522) was 16.2 µM (inactive), the GI50 (OVCAR-3) was 17.8 µM (inactive) and the GI50 (SF-295) was 20.3 µM (inactive). For the same compound, the GI50 (SK-OV-3) was 34.5 µM (inactive), the GI50 (SNB-19) was 24.9 µM (inactive) and the GI50 (U-251) was 14.6 µM (inactive). For the same compound, the GI50 (XF498) was 28.4 µM (inactive).
In the case of `CCOC(C/N=c1/nc(N(C)C)ss1)OCC`, the GI50 (A549) is reported as 57 µM (inactive), the GI50 (CCRF-CEM) is reported as 0.208 µM (active) and the GI50 (COLO 205) is reported as 0.986 µM (active). For the same compound, the GI50 (DU-145) was > 71.1 µM (inactive), the GI50 (HCT-116) was 14.9 µM (inactive) and the GI50 (HOP-62) was 65.6 µM (inactive). The GI50 (KM12) was 4.61 µM (inactive), the GI50 (MDA-MB-231) was 15.5 µM (inactive) and the GI50 (MOLT-4) was 0.593 µM (active). The GI50 (Malme-3M) was 7.71 µM (inactive), the GI50 (NCI-H226) was 24.6 µM (inactive) and the GI50 (NCI-H522) was 0.0998 µM (active). For the same compound, the GI50 (NCI/ADR-RES) was > 100 µM (inactive), the GI50 (OVCAR-3) was 9.89 µM (inactive) and the GI50 (SF-295) was 22.2 µM (inactive). For the same compound, the GI50 (SK-OV-3) was > 100 µM (inactive), the GI50 (SNB-19) was > 67.1 µM (inactive) and the GI50 (U-251) was 16 µM (inactive). For the same compound, the GI50 (UACC-62) was 1.17 µM (inactive) and the GI50 (XF498) was 15 µM (inactive).
In the case of `CCCCN(CCCC)C(=O)C(=O)C(C)C(=O)CC` (stereo not given), the GI50 (A549) is reported as > 100 µM (inactive), the GI50 (COLO 205) is reported as > 100 µM (inactive) and the GI50 (HOP-62) is reported as > 100 µM (inactive). For the same compound, the GI50 (KM12) was > 100 µM (inactive), the GI50 (MOLT-4) was > 100 µM (inactive) and the GI50 (Malme-3M) was > 100 µM (inactive). For the same compound, the GI50 (NCI-H226) was > 100 µM (inactive), the GI50 (NCI-H522) was > 100 µM (inactive) and the GI50 (OVCAR-3) was > 100 µM (inactive). The GI50 (SF-295) was > 100 µM (inactive), the GI50 (SK-OV-3) was > 100 µM (inactive) and the GI50 (SNB-19) was > 100 µM (inactive). The GI50 (U-251) was > 100 µM (inactive), the GI50 (UACC-62) was > 100 µM (inactive) and the GI50 (XF498) was > 100 µM (inactive).
With `O=C(c1ccccc1)c1c(CNCc2ccccc2)n(C(=O)c2ccccc2)c2ccccc12` the GI50 (A549) was 22.4 µM (inactive), the GI50 (CCRF-CEM) was 23.2 µM (inactive) and the GI50 (COLO 205) was 47 µM (inactive). For the same compound, the GI50 (HCT-116) was 8.67 µM (inactive), the GI50 (HOP-62) was 80.5 µM (inactive) and the GI50 (KM12) was 18.9 µM (inactive). The GI50 (MOLT-4) was 7.43 µM (inactive), the GI50 (Malme-3M) was 77.1 µM (inactive) and the GI50 (NCI-H226) was 29.6 µM (inactive). The GI50 (NCI-H522) was 4.52 µM (inactive), the GI50 (OVCAR-3) was 15.4 µM (inactive) and the GI50 (SF-295) was 9.51 µM (inactive). The GI50 (SNB-19) was 22.8 µM (inactive), the GI50 (U-251) was 20.8 µM (inactive) and the GI50 (UACC-62) was 95.3 µM (inactive). For the same compound, the GI50 (XF498) was > 100 µM (inactive).
`CCN1C[C@]2(C)CC[C@H](OC)C34C1C([C@H](OC(C)=O)[C@@H]32)[C@@]1(OC)C[C@H](OC)[C@H]2C[C@@H]4[C@@H]1[C@H]2O` was tested, and the GI50 (A549) was > 100 µM (inactive), the GI50 (CCRF-CEM) was > 100 µM (inactive) and the GI50 (COLO 205) was 55.5 µM (inactive). The GI50 (HCT-116) was > 100 µM (inactive), the GI50 (HOP-62) was > 100 µM (inactive) and the GI50 (KM12) was > 100 µM (inactive). For the same compound, the GI50 (MOLT-4) was > 100 µM (inactive), the GI50 (Malme-3M) was > 100 µM (inactive) and the GI50 (NCI-H226) was > 100 µM (inactive). For the same compound, the GI50 (NCI-H522) was > 100 µM (inactive), the GI50 (SF-295) was > 100 µM (inactive) and the GI50 (SK-OV-3) was > 100 µM (inactive). The GI50 (SNB-19) was > 100 µM (inactive), the GI50 (U-251) was > 100 µM (inactive) and the GI50 (UACC-62) was > 100 µM (inactive). For the same compound, the GI50 (XF498) was > 100 µM (inactive).
For `CSc1nnc(C(C#N)C#N)nn1`, the GI50 (A549) was > 100 µM (inactive), the GI50 (CCRF-CEM) was > 100 µM (inactive) and the GI50 (COLO 205) was > 100 µM (inactive). The GI50 (HCT-116) was > 100 µM (inactive), the GI50 (HOP-62) was > 100 µM (inactive) and the GI50 (KM12) was > 100 µM (inactive). For the same compound, the GI50 (MOLT-4) was > 100 µM (inactive), the GI50 (Malme-3M) was > 100 µM (inactive) and the GI50 (NCI-H226) was > 100 µM (inactive). For the same compound, the GI50 (NCI-H522) was > 100 µM (inactive), the GI50 (OVCAR-3) was > 100 µM (inactive) and the GI50 (SF-295) was > 100 µM (inactive). For the same compound, the GI50 (SK-OV-3) was > 100 µM (inactive), the GI50 (SNB-19) was > 100 µM (inactive) and the GI50 (U-251) was > 100 µM (inactive). The GI50 (UACC-62) was > 100 µM (inactive) and the GI50 (XF498) was > 100 µM (inactive).
